Results on 4 compounds are retold here after patent US11072637B2, “Walnut oligopeptide powder, preparation method and application thereof” (Sinphar Tian-Li (Hangzhou) Pharmacy Company Limited, priority 2016, dated 2021).

Where “and” joins values, the source holds several entries; their conditions need not be identical. Equal values may be shown once. Non-standard residues stand in square brackets, D forms with d. Residues, ends and D or L forms follow the SMILES beside them. pGlu = O=C1CC[C@@H](C(=O)O)N1; Thz = O=C(O)[C@@H]1CSCN1

Test [1] relates to zebra fish macrophages. As to the kind of experiment: Improvement of zebra fish macrophage inhibition (vinorelbine model). Type of test: in vivo. Conditions: for number of macrophages of the zebra fish head, Mean ± SD(count): 1.9 μg/mL in fish water, model control 15, normal control 27, n = 10. How it is done:
Improvement Effect of Walnut Oligopeptide Powder on Inhibition of Zebra Fish Macrophages […] Meanwhile, model control group and normal control group were set (no treatment was carried out), in which 30 tail zebra fishes were in each experimental group, and each group was placed in a 28 L incubator to be cultured. When processing to 3 dpf, the zebra fishes in each experiment group were subjected to neutral red staining. After dyeing for 4 hours, 10-tail zebra fishes from each experimental group were selected to be observed under microscope randomly, and photos were taken and stored. Image analysis for the number of the zebra fish macrophages was carried out by image processing software. The improvement effect of the walnut oligopeptide powder on inhibition of the zebra fish macrophage was quantitatively evaluated.

Test [2] has as its system central nervous system of zebra fishes. The experiment in a line: Protection of zebra fish central nervous system (mycophenolate-induced injury). Type of test: in vivo. The note with it: 154 μg/mL. How it is done: Protection Effect of the Walnut Oligopeptide Powder on the Central Nervous Centrum of Zebra Fishes 180 wild type AB strain zebra fishes after fertilization in […] (1 dpf) were selected randomly and were arranged in six-well plate, and 30 tail zebra fishes were treated in each hole (the experiment group), and central injury of the zebra fishes was induced by the mycophenolate mophol ester. […] After the oligopeptide was subjected to co-treatment for 24 hours with the mycophenolate, the acridine orange was used for dyeing, after dyeing, 10 tail zebra fishes from each experimental group were selected randomly to photograph under fluorescence microscope and collect data, analyzing and counting the fluorescent intensity of the apoptotic cells of central nervous system (brain and spinal cord) of the zebra fishes; the protective effect of the walnut oligopeptide powder on the central nervous system of zebra fishes was evaluated according to the fluorescence intensity.

Test [3] has as its system Scopolamine-Induced Memory Acquisition Impairment of the Mice. As to the kind of experiment: Scopolamine-induced memory acquisition impairment of mice (jumping table). Type of test: in vivo, ICR mouse. The note with it: scopolamine model, 30 mg/kg. How it is done:
(§1) 1. Test Animal The test animal was a cleaning-grade ICR mouse with 18-22 g in weight, the three batches of 300 were provided by Nantong University. Laboratory animal production license is SCXK (Su) 2014-0001, fed by conventional mouse feedstuff, and free drinking water. Before the experiment they were fed in a quiet environment for 1 week, freely-feeding and drinking water, and keeping the room temperature (22±1° C.) and natural day and night rhythm illumination. 2.1 Influence on Scopolamine-Induced Memory Acquisition Impairment of Mouse The mouse was randomly grouped and low, medium and high dosage groups (30, 100 and 300 mg/kg) of walnut oligopeptide (preparation example 1) was provided, the blank group and the model group were given equal-volume distilled water respectively, and 30 mg/kg of nimodipine was administrated in positive control group, respectively filling the stomach for one time every day in each group, and continuously feeding the medicines for 7 days. Jump-table training. […] During testing, the mouse were placed on the jumping table, and time was counted at the same time. The first jumping time of the mouse was recorded, and it was an electric shock incubation period (namely, an error incubation period) and recording the times of jumping within 5 minutes (i.e., the times of errors), was recorded as observation index.

The subject of test [4] is Sodium Nitrite-Induced Memory Consolidation Disorder of Mice. As to the kind of experiment: Sodium nitrite-induced memory consolidation disorder of mice (jumping table). Type of test: in vivo, ICR mouse. The note with it: sodium nitrite model, 30 mg/kg. How it is done: as §1, with “The” for “1. Test Animal The”, “illumination.” for “illumination. 2.1 Influence on Scopolamine-Induced Memory Acquisition Impairment of Mouse”, “index. […]” for “index.”

Test [5] concerns 40% Ethanol-Induced Memory Reproduction Disorder of Mice. The experiment in a line: 40% ethanol-induced memory reproduction disorder of mice (jumping table). Type of test: in vivo, ICR mouse. Conditions: 40% ethanol model, 30 mg/kg. How it is done:
as §1, with “The” for “1. Test Animal The”, “illumination.” for “illumination. 2.1 Influence on Scopolamine-Induced Memory Acquisition Impairment of Mouse”, “index. […]” for “index.”

For test [6], the system named is zebra fish macrophages. The experiment in a line: Promotion of phagocytosis function of zebra fish macrophages (ink model). Type of test: in vivo. The note with it: 200 μg/mL. How it is done:
2. Promotion Effect of Walnut Oligopeptide Powder on Phagocytosis Function of Zebra Fish Macrophages
Zebra fish macrophage promoting model inhibition model was built by intravenous injection of ink in 2 days (2 dpf) zebra fishes after fertilization. respectively dissolved in fish water to give the walnut oligopeptide and the positive drug pidotimod, […], and the concentration of the pidotimod is 200 […]. Meanwhile, model control group and normal control group were set, in which 30 tail zebra fishes are in each experimental group, and each group was placed in a 28 L incubator to be cultured. When processing to 3 dpf, the zebra fishes in each experiment group were subjected to neutral red staining, after dyeing for 4 hours, 10-tail zebra fishes from each experimental group were selected to be observed under microscope randomly, and photos were taken and stored; image analysis for the ink signal of the zebra fish macrophages was carried out by image processing software. The improvement effect of four test samples on phagocytosis function of the zebra fish macrophages was quantitatively evaluated.

Take `COc1ccc2cc3[n+](cc2c1OC)CCc1cc2c(cc1-3)OCO2` [Berberine, berberine]: the results for the “number of macrophages of the zebra fish head, Mean ± SD(count)” value with zebra fish macrophages [1] and in the test on zebra fish macrophages [1] (listed as berberine) were 20 ± 4 count and 20 count, respectively. For the same compound, in the test on zebra fish macrophages [1] (1.9 μg/mL, compared with model control group), the “Improvement Effect (%)” value was determined as 41.67%.
Turning to `N[C@@H](CCC(=O)N[C@@H](CS)C(=O)NCC(=O)O)C(=O)O` [GSH, glutathione], the “Protection Effect on Central Nervous System (%)” value in test [2] came to 92%. Further, in test [2] (24 hours co-treatment with mycophenolate, model 565783, normal 161976), the “fluorescence intensity of central apoptosis cell (pixel)(mean ± SE)” value was 190000 pixel and 193900 ± 8302 pixel.
With `COCCOC(=O)C1=C(C)NC(C)=C(C(=O)OC(C)C)C1c1cccc([N+](=O)[O-])c1` (stereo not shown) [Nimodipine, nimodipine], the “Incubation Period” value in test [3] (gavage once daily 7 days, n = 10, model 14.6) worked out at 35.9 ± 30.3 s; in test [4] (gavage once daily 7 days, n = 10, model 94.7), 237.7 ± 79.7 s; in test [5] (gavage once daily 7 days, n = 8, model 46.3), 99.6 ± 98.7 s. The “Times of Error (n)” value in test [3] (within 5 minutes, model 3.5) is recorded as 2.0 ± 1.4 n; in test [4] (within 5 minutes, model 3.6), 1.0 ± 1.2 n; in test [5] (within 5 minutes, model 5.7) it was 2.5 ± 1.4 n.
Consider `O=C1CC[C@@H](C(=O)N2CSC[C@H]2C(=O)O)N1` [pidotimod] ([pGlu]-[Thz]-OH), for which the “Promotion Effect (time)” value with zebra fish macrophages [6] (compared with model control group) came to 2.3 time. Besides, the “number of macrophages of the phagocytosis ink, Mean ± SD(count)” value with zebra fish macrophages [6] (model control 1.5, n = 10) is 3.5 count and 3.5 ± 1.8 count.
